Values of other authors, collected in US20260108637A1, “USES OF PSMA-TARGETING AND TSPO-TARGETING COMPOUNDS FOR EVALUATION OF INJURIES IN THE PERIPHERAL NERVOUS SYSTEM” (The Johns Hopkins University, priority 2023, published 2026).

Target: GCPII (Homo sapiens, UniProt Q04609)
Conditions: described previously, Chen et al., 2009

Chain of GCPII (Q04609 whole entry, species assumed): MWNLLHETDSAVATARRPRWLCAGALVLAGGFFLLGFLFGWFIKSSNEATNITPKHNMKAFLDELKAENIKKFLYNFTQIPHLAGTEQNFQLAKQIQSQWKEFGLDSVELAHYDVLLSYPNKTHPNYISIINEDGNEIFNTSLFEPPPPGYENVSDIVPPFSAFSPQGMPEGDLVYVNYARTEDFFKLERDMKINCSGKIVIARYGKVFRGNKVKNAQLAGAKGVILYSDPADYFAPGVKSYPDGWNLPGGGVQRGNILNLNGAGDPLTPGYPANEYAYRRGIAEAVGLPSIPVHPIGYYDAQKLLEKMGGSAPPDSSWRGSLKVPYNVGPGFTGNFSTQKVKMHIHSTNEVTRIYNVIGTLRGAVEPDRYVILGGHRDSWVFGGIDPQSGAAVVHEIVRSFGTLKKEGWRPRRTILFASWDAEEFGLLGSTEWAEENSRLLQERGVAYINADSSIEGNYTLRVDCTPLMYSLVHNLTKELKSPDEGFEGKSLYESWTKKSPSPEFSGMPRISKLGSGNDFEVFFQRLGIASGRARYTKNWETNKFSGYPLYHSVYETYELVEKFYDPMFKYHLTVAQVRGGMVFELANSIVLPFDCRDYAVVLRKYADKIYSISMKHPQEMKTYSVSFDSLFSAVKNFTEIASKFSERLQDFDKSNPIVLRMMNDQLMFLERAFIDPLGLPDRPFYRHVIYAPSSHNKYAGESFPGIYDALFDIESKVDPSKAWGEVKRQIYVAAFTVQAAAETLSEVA

## CC1(C)C(/C=C/C2=C(Oc3ccc(S(=O)(=O)O)cc3)C(=C/C=C3/N(CCCCS(=O)(=O)O)c4ccc(S(=O)(=O)O)cc4C3(C)C)/CCC2)=[N+](CCCCCC(=O)NCCCCC(NC(=O)CCCCCCC(=O)NCCCC[C@H](NC(=O)N[C@@H](CCC(=O)O)C(=O)O)C(=O)O)C(=O)O)c2ccc(S(=O)(=O)[O-])cc21 (stereo partly shown) [YC27]
  Ki: 370 pM
